Assay results from the supplement of paper PMC11781733.
Where a name gives a salt, the structure may show the parent alone.

How the values were obtained:
Conditions in all cases: exposure time: 15 min to 3 h acute
Dugesia japonica [1] = assay: total locomotor bursts minus vehicle (bursts difference vs vehicle); higher = higher incidence or increase relative to vehicle control
Outline: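 Planarians of the species Dugesia japonica, fasted beforehand, received half- or quarter-log concentration series in 0.5% DMSO or water, one animal per well of a sealed 48-well plate holding 200 μL solution. They were tested 15 min–3 h after exposure in technical triplicates totalling n = 24. Each animal's count of total locomotor bursts, an unstimulated behaviour obtained by image-based object tracking, had the plate vehicle-control median subtracted without ×100 scaling. The figure given is the median normalised response, with crawled-out worms excluded.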

Dugesia japonica [2] = assay: resting fraction in dark vs vehicle (difference in fraction x100 vs vehicle); higher = higher incidence or increase relative to vehicle control
Outline: (§1)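 Resting fraction in the dark or under blue light is reported as a median from automated tracking of intact, fasted Dugesia japonica. Worms were held one per well of a 48-well plate in 200 μL and tested 15 min to 3 h after exposure in 0.5% DMSO or water vehicle. Each worm's value was its difference from the plate's vehicle median multiplied by 100, and worms that crawled out were excluded.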

Dugesia japonica [3] = assay: contracted body shape incidence (% planarians (vehicle-normalised)); higher = higher incidence or increase relative to vehicle control
Outline: (§2)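 D. japonica planarians (fasted 5–7 days), one per well in 200 μL in sealed 48-well plates, were screened within 15 minutes–3 hours of exposure to at least 5 concentrations. Body shapes (contraction, C-shape, corkscrew, hyperkinesis) were scored manually and blind by a researcher; worms that crawled out were excluded. The value is the incidence of the given shape, or of any abnormal shape, ×100, normalised to in-plate vehicle controls, with negatives set to 0.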

Dugesia japonica [4] = assay: resting fraction in blue light vs vehicle (difference in fraction x100 vs vehicle); higher = higher incidence or increase relative to vehicle control
Outline: as §1

Dugesia japonica [5] = assay: speed second 30 s blue light vs vehicle (% change vs vehicle); higher = higher incidence or increase relative to vehicle control
Outline: (§3)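 Crawling speed is given as the median percent change after each worm was normalised to its plate's vehicle median, leaving out worms that crawled out. Fasted, intact Dugesia japonica were placed one per well in 200 μL in 48-well plates and tracked automatically in darkness or during blue-light periods, 15 min to 3 h after exposure in 0.5% DMSO or water vehicle. Runs used eight worms per concentration per plate in technical triplicate (n = 24).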

Dugesia japonica [6] = assay: loss of phototaxis incidence (% planarians (vehicle-normalised)); higher = higher incidence or increase relative to vehicle control
Outline: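 Intact, fasted Dugesia japonica were tested 15 min to 3 h after exposure in 0.5% DMSO or water vehicle, one per well of a 48-well plate in 200 μL. Automated object tracking was used to score each worm for loss of phototaxis as a yes/no result. With eight worms per concentration per plate in technical triplicate (n = 24), worms that crawled out were excluded. The incidence rate ×100 was normalised to in-plate vehicle controls and negatives were set to 0.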

Dugesia japonica [7] = assay: noxious heat displacement strength vs vehicle (% change vs vehicle); higher = higher incidence or increase relative to vehicle control
Outline: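 In the scrunching assay, displacement strength under noxious heat was tracked automatically in intact, fasted Dugesia japonica and expressed as the median percent change from the plate's vehicle median. Testing took place 15 min to 3 h after exposure in 0.5% DMSO or water vehicle, with one worm per well of a 48-well plate in 200 μL. Eight worms per concentration per plate were tested in technical triplicate (n = 24), and any that crawled out were left out.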

Dugesia japonica [8] = assay: hyperkinesis incidence (% planarians (vehicle-normalised)); higher = higher incidence or increase relative to vehicle control
Outline: as §2

Dugesia japonica [9] = assay: speed first 30 s blue light vs vehicle (% change vs vehicle); higher = higher incidence or increase relative to vehicle control
Outline: as §3

Dugesia japonica [10] = assay: speed in dark vs vehicle (% change vs vehicle); higher = higher incidence or increase relative to vehicle control
Outline: as §3

Dugesia japonica [11] = assay: loss of heat-induced scrunching incidence (% planarians (vehicle-normalised)); higher = higher incidence or increase relative to vehicle control
Outline: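 The incidence of worms lacking a scrunching response to a noxious heat stimulus, normalised to vehicle controls within each plate, is the value listed. It appears ×100 with negatives set to 0. Single D. japonica planarians in 200 μL per well of 48-well plates were exposed to at least 5 concentrations (n = 24 per concentration) and tested within 15 minutes–3 hours, excluding worms that crawled out.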

Dugesia japonica [12] = assay: corkscrew incidence (% planarians (vehicle-normalised)); higher = higher incidence or increase relative to vehicle control
Outline: as §2

Dugesia japonica [13] = assay: anxiety (time in outer well region) vs vehicle (% change vs vehicle); higher = higher incidence or increase relative to vehicle control
Outline: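 Each planarian's time in the outer portion of its well was scored, worms that crawled out were dropped, and the median normalized response is reported. Fasted 5–7 days, D. japonica worms were tested singly in 200 μL in sealed 48-well plates at at least 5 concentrations, n = 24 per concentration, within 15 minutes–3 hours. Each response was normalized by dividing by, or subtracting, the plate vehicle median and multiplying by 100.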

Dugesia japonica [14] = assay: stickiness incidence (% planarians (vehicle-normalised)); higher = higher incidence or increase relative to vehicle control
Outline: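 Stickiness was scored as a yes-or-no outcome in fasted Dugesia japonica planarians, and incidence was normalised to the vehicle incidence on the same plate. Each worm sat alone in a well of a sealed 48-well plate holding 200 μL of solution and was tested 15 min–3 h after exposure to half- or quarter-log concentration series, with 0.5% DMSO or water as vehicle. Technical triplicates were pooled (n = 24), negative values were set to 0, values were multiplied by 100, and worms that crawled out were excluded.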

Dugesia japonica [15] = assay: pharynx extrusion incidence (% planarians (vehicle-normalised)); higher = higher incidence or increase relative to vehicle control
Outline: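 Intact, fasted Dugesia japonica were placed one per well in 48-well plates with 200 μL each and scored 15 min to 3 h after exposure in either water or 0.5% DMSO vehicle. Pharynx extrusion was judged manually and blind as a body-shape category. Each concentration used eight worms per plate in technical triplicate (n = 24). Incidence was normalised to vehicle controls on the same plate, negative values were set to 0, and worms that crawled out were excluded.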

Dugesia japonica [16] = assay: crawl-out incidence (% planarians); higher = higher incidence or increase relative to vehicle control
Dugesia japonica [17] = assay: any abnormal body shape incidence (% planarians (vehicle-normalised)); higher = higher incidence or increase relative to vehicle control
Outline: as §2

Dugesia japonica [18] = assay: C-shape incidence (% planarians (vehicle-normalised)); higher = higher incidence or increase relative to vehicle control
Outline: as §2

Structure (SMILES)	total locomotor bursts minus vehicle (Dugesia japonica [1])	resting fraction in dark (Dugesia japonica [2])	contracted body shape incidence (Dugesia japonica [3])	resting fraction in blue light (Dugesia japonica [4])	speed second 30 s blue light (Dugesia japonica [5])	loss of phototaxis incidence (Dugesia japonica [6])	noxious heat displacement strength (Dugesia japonica [7])	hyperkinesis incidence (Dugesia japonica [8])	speed first 30 s blue light (Dugesia japonica [9])	speed in dark (Dugesia japonica [10])	loss of heat-induced scrunching incidence (Dugesia japonica [11])	corkscrew incidence (Dugesia japonica [12])	anxiety (Dugesia japonica [13])	stickiness incidence (Dugesia japonica [14])	pharynx extrusion incidence (Dugesia japonica [15])	crawl-out incidence (Dugesia japonica [16])	any abnormal body shape incidence (Dugesia japonica [17])	C-shape incidence (Dugesia japonica [18])
CNCCC(Oc1ccc(C(F)(F)F)cc1)c1ccccc1 (centres undefined) [fluoxetine hydrochloride] (100 µM)	15.5	70.7	0	79.5	-89.3	37.5	-80.3	29.2	-90.4	-65.4	37.5	0	7.58	≤ 0	0	0	50	33.3
O=C(CCCN1CCC(O)(c2ccc(Cl)cc2)CC1)c1ccc(F)cc1 [haloperidol] (3.16 µM)	4.5	16.5	4.76	12.2	-58.4	31.8	-30.8	0	-68.4	-38.5	9.09	4.76	-3.6	≤ 0	0	8.33	9.52	0
O=C(CCCN1CCC(O)(c2ccc(Cl)cc2)CC1)c1ccc(F)cc1 [haloperidol] (10 µM)	11.5	15.2	5	8.2	-53.4	20	-26.4	10	-57.5	-47.5	25	10	-0.48	≤ 0	0	16.7	20	0
O=C(CCCN1CCC(O)(c2ccc(Cl)cc2)CC1)c1ccc(F)cc1 [haloperidol] (31.6 µM)	15.5	35.2	10.5	16.3	-62.8	15	-24	21.1	-68	-59.3	5	52.6	-7.34	≤ 0	0	16.7	63.2	0
O=C(CCCN1CCC(O)(c2ccc(Cl)cc2)CC1)c1ccc(F)cc1 [haloperidol] (100 µM)	25	48.4	0	30.8	-68.8	13	-19.3	19	-69.3	-66.9	34.8	28.6	1.65	≤ 0	0	4.17	38.1	0
CN(C)CCCN1c2ccccc2CCc2ccccc21 [imipramine] (1 µM)	3	6.78	0	0.17	-18.2	≤ 0	-4.45	0	-21.6	-23.4	≤ 0	0	-4.11	≤ 0	0	0	4.17	0
CN(C)CCCN1c2ccccc2CCc2ccccc21 [imipramine] (3.16 µM)	11	12.6	0	6.5	-43.6	≤ 0	-7.92	0	-51.6	-44.7	≤ 0	0	3.55	≤ 0	0	0	0	0
CN(C)CCCN1c2ccccc2CCc2ccccc21 [imipramine] (10 µM)	10.8	4.41	0	3.16	-51.7	12.5	-29.7	0	-47.9	-48.9	≤ 0	0	0.22	16.7	0	0	0	0
CN(C)CCCN1c2ccccc2CCc2ccccc21 [imipramine] (31.6 µM)	15.2	6.51	12.5	6.1	-64.4	20.8	-21.9	33.3	-68.6	-64	≤ 0	0	-4.58	34.8	4.17	0	45.8	0
O=C(O)/C=C\C(=O)O [maleic acid] (200 µM)	-2	-12.7	0	-5.42	-23.8	≤ 0	-39.3	0	-32.5	-20.4	33.3	0	23.7	12.5	0	0	0	0
Cc1ncc2n1-c1ccc(Cl)cc1C(c1ccccc1F)=NC2 [midazolam] (17.8 µM)	1	1.03	0	-0.5	-2.19	≤ 0	-19.1	33.3	-3.83	-14.7	≤ 0	0	-7.26	≤ 0	0	0	33.3	0
Cc1ncc2n1-c1ccc(Cl)cc1C(c1ccccc1F)=NC2 [midazolam] (31.6 µM)	-0.5	-0.404	0	-0.5	23.1	≤ 0	-27.4	20.8	-1.82	8.87	8.33	0	3.09	≤ 0	0	0	20.8	0
Cc1ncc2n1-c1ccc(Cl)cc1C(c1ccccc1F)=NC2 [midazolam] (56.2 µM)	2.5	22.7	12.5	2.61	-10.2	≤ 0	-25.6	20.8	-29.6	-34	≤ 0	0	7.1	4.17	0	0	33.3	0
Cc1ncc2n1-c1ccc(Cl)cc1C(c1ccccc1F)=NC2 [midazolam] (100 µM)	28.5	59.7	45.8	68.2	-87.7	29.2	-48.3	70.8	-93	-70.7	45.8	0	2.35	20.8	4.17	0	95.8	20.8
Cc1cc2c(s1)Nc1ccccc1N=C2N1CCN(C)CC1 [olanzapine] (100 µM)	-2.75	79.9	27.3	76	-91.1	7.14	-50.1	45.5	-93.9	-67.8	68.2	18.2	18.3	27.3	0	41.7	77.3	13.6
Cc1cc2c(s1)Nc1ccccc1N=C2N1CCN(C)CC1 [olanzapine] (316 µM)	7	73.9	31.8	77.4	-89.1	13.3	-47.4	45.5	-94.9	-71.2	72.7	13.6	-6.74	22.7	0	37.5	81.8	27.3
O=C(O)C(=O)O [oxalic acid] (100 µM)	6.5	-1.66	0	1.86	-8.31	≤ 0	-11.5	12.5	-25.2	-6.93	8.33	0	24.9	≤ 0	0	0	12.5	0
O=C(O)C(=O)O [oxalic acid] (316 µM)	31.5	33	0	22.9	-69	8.33	-67.5	58.3	-63.2	-42.2	≤ 0	0	-24.7	37.5	0	0	62.5	0
